Assay results taken from patent US10167297B2, “Substituted pyridine compounds having herbicidal activity” (BASF SE, priority 2014, dated 2019).

Experiments:
Assay type in all cases: in vivo
Amaranthus retroflexus = experiment: greenhouse post-emergence herbicidal activity (use examples); conditions: AMARE, 0.050 kg/ha, scale 0 to 100
From the text: (§1) The seeds of the test plants were sown separately for each species. For the pre-emergence treatment, the active ingredients, which had been suspended or emulsified in water, were applied directly after sowing by means of finely distributing nozzles. The containers were irrigated gently to promote germination and growth and subsequently covered with transparent plastic hoods until the plants had rooted. This cover caused uniform germination of the test plants, unless this had been impaired by the active ingredients. For the post-emergence treatment, the test plants were first grown to a height of 3 to 15 cm, depending on the plant habit, and only then treated with the active ingredients which had been suspended or emulsified in water. For this purpose, the test plants were either sown directly and grown in the same containers, or they were first grown separately as seedlings and transplanted into the test containers a few days prior to treatment. Depending on the species, the plants were kept at 10-25° C. or 20-35° C., respectively. The test period extended over 2 to 4 weeks. During this time, the plants were tended, and their response to the individual treatments was evaluated. Evaluation was carried out using a scale from 0 to 100. 100 means no emergence of the plants, or complete destruction of at least the aerial moieties, and 0 means no damage, or normal course of growth. A good herbicidal activity is given at values of at least 70 and a very good herbicidal activity is given at values of at least 85. The plants used in the greenhouse experiments were of the following species: [table]

Echinocloa crus-galli [1] = experiment: as above; conditions: Echinochloa crus-galli, ECHCG, 0.050 kg/ha, scale 0 to 100
From the text: as §1

Setaria faberi = experiment: as above; conditions: SETFA, scale 0 to 100
From the text: as §1

Zea mays [2] = experiment: greenhouse post-emergence herbicidal activity on crop plant corn (use examples); conditions: ZEAMX (corn, crop plant), scale 0 to 100
From the text: as §1

Abuthilon avicennae = experiment: comparative greenhouse post-emergence herbicidal activity; conditions: ABUTH, 20 days, scale 0 to 100
Protocol: (§2) The herbicidal activity of the compounds I-5 (N-[2,6-dichloro-3-(8-hydroxy-6,6-dioxo-5H-thiopyrano[4,3-b]pyridin-7-yl)phenyl]-N-methyl-acetamide) and 1-19 (Methyl N-[2,6-dichloro-3-(8-hydroxy-5,5-dimethyl-6,6-dioxo-thiopyrano[4,3-b]pyridin-7-yl)phenyl]-N-methyl-carbamate) according to this invention was tested in comparison with compound I-5 disclosed on page 147 of WO 2012/084755 A1 (not of the invention). These comparative experiments were performed in greenhouse by using the following procedure:
(§3) The culture containers used were plastic flowerpots containing loamy sand with approximately 3.0% of humus as the substrate. The seeds of the test plants were sown separately for each species.
(§4) For the post-emergence treatment, the test plants were first grown to a height of 3 to 15 cm, depending on the plant habit, and only then treated with the active ingredients which had been suspended or emulsified in water using a volume of 375 I/ha and 1% of an Adjuvant. For this purpose, the test plants were either sown directly and grown in the same containers, or they were first grown separately as seedlings and transplanted into the test containers a few days prior to treatment.
(§5) Depending on the species, the plants were kept at 10-25° C. (cold season grasses) or 20-35° C. (warm season grasses), respectively.
(§6) The test period extended over 20 days. During this time, the plants were tended, and their response to the individual treatments was evaluated.
(§7) Evaluation was carried out using a scale from 0 to 100. 100 means complete destruction of at least the aerial moieties, and 0 means no damage, or normal course of growth. A good herbicidal activity is given at values of at least 70 and a very good herbicidal activity is given at values of at least 85.
(§8) The plants used in the greenhouse experiments were of the following species:
(§9) The application rates in the post-emergence treatment were 0.1, 0.05 and 0.025 kg/ha, respectively.

Ambrosia artimisifolio = experiment: as above; conditions: AMBEL, 20 days, scale 0 to 100
Protocol: as §2, §3, §4, §5, §6, §7, §8, §9

Avena Fatua = experiment: as above; conditions: AVEFA, 20 days, scale 0 to 100
Protocol: as §2, §3, §4, §5, §6, §7, §8, §9

Bromus steliris = experiment: as above; conditions: BROST, 20 days, scale 0 to 100
Protocol: as §2, §3, §4, §5, §6, §7, §8, §9

Digitaria sanguine = experiment: as above; conditions: DIGSA, 20 days, scale 0 to 100
Protocol: as §2, §3, §4, §5, §6, §7, §8, §9

Echinocloa crus-galli [3] = experiment: as above; conditions: ECHCG, 20 days, scale 0 to 100
Protocol: as §2, §3, §4, §5, §6, §7, §8, §9

Lolium Multiflori = experiment: as above; conditions: LOLMU, 20 days, scale 0 to 100
Protocol: as §2, §3, §4, §5, §6, §7, §8, §9

Polygonum convolvulus [4] = experiment: as above; conditions: POLCO, 20 days, scale 0 to 100
Protocol: as §2, §3, §4, §5, §6, §7, §8, §9

Setaria viridis [5] = experiment: as above; conditions: SETVI, 20 days, scale 0 to 100
Protocol: as §2, §3, §4, §5, §6, §7, §8, §9

Zea mays [6] = experiment: comparative greenhouse post-emergence herbicidal activity on crop plant corn; conditions: ZEAMX (corn, crop plant), 20 days, scale 0 to 100
Protocol: as §2, §3, §4, §5, §6, §7, §8, §9

Stellaria media = experiment: greenhouse post-emergence herbicidal activity (use examples); conditions: STEME, scale 0 to 100
From the text: as §1

Poa annua = experiment: as above; conditions: POAAN, 0.031 kg/ha, scale 0 to 100
From the text: as §1

Thlaspi arvense = experiment: as above; conditions: THLAR, 0.031 kg/ha, scale 0 to 100
From the text: as §1

Polygonum convolvulus [7] = experiment: as above; conditions: POLCO, 0.063 kg/ha, scale 0 to 100
From the text: as §1

Setaria viridis [8] = experiment: as above; conditions: SETVI, 0.063 kg/ha, scale 0 to 100
From the text: as §1

COC(=O)N(C)c1c(Cl)ccc(C2=C(O)c3ncccc3C(C)(C)S2(=O)=O)c1Cl [Compound I-19, Methyl N-[2,6-dichloro-3-(8-hydroxy-5,5-dimethyl-6,6-dioxo-thiopyrano[4,3-b]pyridin-7-yl)phenyl]-N-methyl-carbamate] showed a Herbicidal activity (Amaranthus retroflexus) of 98, a pest or weed control at 50 g/ha (Echinocloa crus-galli [1]) of 95% and a Herbicidal activity (Setaria faberi; 0.050 kg/ha) of 98. For the same molecule, the plant injury at 50 g/ha (Zea mays [2]; 0.050 kg/ha) was 20%, the Herbicidal activity (Abuthilon avicennae; 0.025 kg/ha) was 75 and the Herbicidal activity (Abuthilon avicennae; 0.05 kg/ha) was 85. The Herbicidal activity (Abuthilon avicennae; 0.1 kg/ha) was 98, the Herbicidal activity (Ambrosia artimisifolio; 0.025 kg/ha) was 85 and the Herbicidal activity (Ambrosia artimisifolio; 0.05 kg/ha) was 95. The Herbicidal activity (Ambrosia artimisifolio; 0.1 kg/ha) was 90, the Herbicidal activity (Avena Fatua; 0.025 kg/ha) was 50 and the Herbicidal activity (Avena Fatua; 0.05 kg/ha) was 80. For the same molecule, the Herbicidal activity (Avena Fatua; 0.1 kg/ha) was 90, the Herbicidal activity (Bromus steliris; 0.025 kg/ha) was 80 and the Herbicidal activity (Bromus steliris; 0.05 kg/ha) was 85. It also gave a Herbicidal activity (Bromus steliris; 0.1 kg/ha) of 95, a Herbicidal activity (Digitaria sanguine; 0.025 kg/ha) of 95 and a Herbicidal activity (Digitaria sanguine; 0.05 kg/ha) of 98. The Herbicidal activity (Digitaria sanguine; 0.1 kg/ha) was 95, the Herbicidal activity (Echinocloa crus-galli [3]; 0.025 kg/ha) was 85 and the Herbicidal activity (Echinocloa crus-galli [3]; 0.05 kg/ha) was 90. For the same molecule, the Herbicidal activity (Echinocloa crus-galli [3]; 0.1 kg/ha) was 95, the Herbicidal activity (Lolium Multiflori; 0.025 kg/ha) was 25 and the Herbicidal activity (Lolium Multiflori; 0.05 kg/ha) was 35. It also gave a Herbicidal activity (Lolium Multiflori; 0.1 kg/ha) of 75, a Herbicidal activity (Polygonum convolvulus [4]; 0.025 kg/ha) of 45 and a Herbicidal activity (Polygonum convolvulus [4]; 0.05 kg/ha) of 45. It also gave a Herbicidal activity (Polygonum convolvulus [4]; 0.1 kg/ha) of 95, a Herbicidal activity (Setaria viridis [5]; 0.025 kg/ha) of 85 and a Herbicidal activity (Setaria viridis [5]; 0.05 kg/ha) of 100. For the same molecule, the Herbicidal activity (Setaria viridis [5]; 0.1 kg/ha) was 100, the Herbicidal activity (Zea mays [6]; 0.025 kg/ha) was 15 and the Herbicidal activity (Zea mays [6]; 0.05 kg/ha) was 35.
CN(C(=O)C(F)F)c1c(Cl)ccc(C2=C(O)c3ncccc3C(C)(C)S2(=O)=O)c1Cl [Compound I-18, N-[2,6-dichloro-3-(8-hydroxy-5,5-dimethyl-6,6-dioxo-thiopyrano[4,3-b]pyridin-7-yl)phenyl]-2,2-difluoro-N-methyl-acetamide] was tested, and the Herbicidal activity (Setaria faberi; 0.125 kg/ha) was 98, the Herbicidal activity (Stellaria media; 0.125 kg/ha) was 100 and the plant injury at 125 g/ha (Zea mays [2]; 0.125 kg/ha) was 30%.
In the case of CCC(=O)N(C)c1c(Cl)ccc(C2=C(O)c3ncccc3C(C)(C)S2(=O)=O)c1Cl [Compound I-10, N-[2,6-dichloro-3-(8-hydroxy-5,5-dimethyl-6,6-dioxo-thiopyrano[4,3-b]pyridin-7-yl)phenyl]-N-methyl-propanamide], the Herbicidal activity (Poa annua) is reported as 98, the Herbicidal activity (Stellaria media; 0.031 kg/ha) is reported as 100 and the Herbicidal activity (Thlaspi arvense) is reported as 100. For the same molecule, the plant injury at 31 g/ha (Zea mays [2]; 0.031 kg/ha) was 30%.
With CN(C(=O)C1CC1)c1c(Cl)ccc(C2=C(O)c3ncccc3C(C)(C)S2(=O)=O)c1Cl [Compound I-9, N-[2,6-dichloro-3-(8-hydroxy-5,5-dimethyl-6,6-dioxo-thiopyrano[4,3-b]pyridin-7-yl)phenyl]-N-methyl-cyclopropanecarboxamide] the Herbicidal activity (Polygonum convolvulus [7]) was 95, the Herbicidal activity (Setaria viridis [8]) was 95 and the Herbicidal activity (Stellaria media; 0.063 kg/ha) was 100. The plant injury at 63 g/ha (Zea mays [2]; 0.063 kg/ha) was 5%.
